ChEMBL document CHEMBL1201862, “PubChem BioAssay data set” (2004)
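Results reflect a 48-hour exposure of cells in 96-well plates to compound at five concentrations. Here, GI50 denotes the concentration required for 50% inhibition of growth.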 Active and inactive are the calls of the source. Rule as the data show it: active = GI50 up to about 1.1 µM and inactive = higher.

Assays:
Assay in all cases: NCI anticancer screen, dose series, 48 h
CCRF-CEM = system: CCRF-CEM
DMS-114 = system: DMS-114
DMS-273 = system: DMS-273
HCC 2998 = system: HCC 2998
HL-60 = system: HL-60
HOP-92 = system: HOP-92
Malme-3M = system: Malme-3M
NCI-H460 = system: NCI-H460
NCI-H522 = system: NCI-H522
RPMI-8226 = system: RPMI-8226
RXF 393 = system: RXF 393
SF-268 = system: SF-268
SN12C = system: SN12C
TK-10 = system: TK-10
UACC-257 = system: UACC-257
OVCAR-5 = system: OVCAR-5

Measured: GI50

O=c1oc2cc(O)ccc2c2[nH]c3cc(O)ccc3c12
inactive: CCRF-CEM 30.8 µM | DMS-114 21.1 µM | DMS-273 21.6 µM | HCC 2998 22.5 µM | HL-60 21.8 µM | HOP-92 32.1 µM | Malme-3M 32.6 µM | NCI-H460 33 µM | NCI-H522 11.7 µM | RPMI-8226 78 µM | RXF 393 20.6 µM | SF-268 22.8 µM | SN12C 33.3 µM | TK-10 36.3 µM | UACC-257 35.2 µM

O=[N+]([O-])c1cc(/C=N\NS(=O)(=O)c2ccc(Cl)cc2)c(O)c([N+](=O)[O-])c1
inactive: CCRF-CEM 24.4 µM | DMS-114 31.9 µM | DMS-273 26.5 µM | HCC 2998 85.7 µM | HL-60 26.7 µM | HOP-92 36.3 µM | Malme-3M 36.6 µM | NCI-H460 21 µM | NCI-H522 24.5 µM | OVCAR-5 > 100 µM | RPMI-8226 19 µM | RXF 393 32.8 µM | SF-268 38 µM | SN12C 25.6 µM | TK-10 > 100 µM | UACC-257 66.5 µM

Cc1cc(Br)cc(C)c1NC(=O)C(=O)C(C(=O)c1ccc(Cl)c(Cl)c1)C1OC(=O)c2ccccc21 (stereo not drawn)
inactive: CCRF-CEM 35.2 µM | DMS-114 24.3 µM | DMS-273 63.2 µM | HCC 2998 > 100 µM | HL-60 24.5 µM | Malme-3M > 100 µM | NCI-H460 > 100 µM | NCI-H522 36.5 µM | OVCAR-5 21.7 µM | RPMI-8226 42.2 µM | RXF 393 > 100 µM | SF-268 39.8 µM | SN12C 79.3 µM | TK-10 70.8 µM | UACC-257 36.7 µM

CC1(C)Cc2cc(C(=O)O)c3c(c2C1=O)COCC3
inactive: CCRF-CEM > 100 µM | DMS-114 > 100 µM | DMS-273 > 100 µM | HCC 2998 > 100 µM | HL-60 > 100 µM | Malme-3M > 100 µM | NCI-H460 > 100 µM | NCI-H522 32.4 µM | OVCAR-5 > 100 µM | RPMI-8226 > 100 µM | RXF 393 > 100 µM | SF-268 > 100 µM | SN12C > 100 µM | TK-10 > 10 µM | UACC-257 > 100 µM

ON/N=C/c1cc2c(cc1Br)OCO2
inactive: CCRF-CEM > 386 µM | DMS-114 251 µM | DMS-273 > 386 µM | HCC 2998 > 386 µM | HL-60 > 386 µM | HOP-92 144 µM | Malme-3M > 386 µM | NCI-H460 > 386 µM | NCI-H522 230 µM | OVCAR-5 164 µM | RPMI-8226 > 386 µM | RXF 393 114 µM | SF-268 247 µM | SN12C > 386 µM | TK-10 > 386 µM | UACC-257 > 386 µM

NCP(=O)(O)OCC(=O)O
inactive: CCRF-CEM > 100 µM | DMS-114 > 100 µM | DMS-273 > 100 µM | HL-60 > 100 µM | HOP-92 > 100 µM | Malme-3M > 100 µM | NCI-H460 > 100 µM | NCI-H522 > 100 µM | OVCAR-5 > 100 µM | RXF 393 > 100 µM | SF-268 > 100 µM | SN12C > 100 µM | TK-10 > 100 µM | UACC-257 > 100 µM

O=C1C(Cl)=C(Cl)C(=O)N1c1ccccc1Cl
inactive: CCRF-CEM 11.9 µM | DMS-114 > 95.1 µM | DMS-273 > 100 µM | HCC 2998 > 100 µM | HL-60 15.3 µM | HOP-92 > 36.7 µM | Malme-3M > 52.5 µM | NCI-H460 > 100 µM | NCI-H522 8.24 µM | OVCAR-5 > 100 µM | RPMI-8226 > 54.1 µM | RXF 393 50.2 µM | SF-268 > 100 µM | SN12C > 100 µM | TK-10 > 100 µM | UACC-257 > 100 µM

C#CC1(O)CCC2[C@@H]3CCc4cc(Oc5nc(F)nc(-c6c7ccccc7c(SCC)n6CCC)n5)ccc4C3CC[C@@]21C (stereo partly drawn)
inactive: CCRF-CEM 39.4 µM | DMS-114 31.3 µM | DMS-273 > 100 µM | HCC 2998 > 100 µM | HL-60 > 100 µM | HOP-92 > 100 µM | Malme-3M > 100 µM | NCI-H460 > 100 µM | NCI-H522 > 10 µM | OVCAR-5 > 100 µM | RPMI-8226 57.3 µM | RXF 393 21.6 µM | SF-268 57.5 µM | TK-10 > 100 µM | UACC-257 > 100 µM

CCOc1ccc(OP2(=O)NC(=O)C=C(C)N2)cc1 (stereo not drawn)
inactive: CCRF-CEM 44.2 µM | DMS-114 > 100 µM | DMS-273 > 100 µM | HL-60 37.8 µM | HOP-92 > 100 µM | Malme-3M > 100 µM | NCI-H460 > 100 µM | NCI-H522 > 100 µM | OVCAR-5 > 100 µM | RPMI-8226 > 100 µM | RXF 393 > 100 µM | SF-268 > 100 µM | SN12C > 100 µM | TK-10 > 100 µM | UACC-257 > 100 µM

CCOC(=O)C1C(=O)CC(=O)C2CCCCC21 (stereo not drawn)
inactive: CCRF-CEM > 100 µM | DMS-114 > 100 µM | DMS-273 > 100 µM | HL-60 > 100 µM | HOP-92 > 100 µM | Malme-3M > 100 µM | NCI-H460 > 100 µM | NCI-H522 > 100 µM | OVCAR-5 > 100 µM | RPMI-8226 > 100 µM | RXF 393 > 100 µM | SF-268 > 100 µM | SN12C > 100 µM | TK-10 > 100 µM | UACC-257 > 100 µM

O=C(N/C(=C\c1c(O)ccc2ccccc12)c1nc2ccccc2[nH]1)c1ccccc1
inactive: CCRF-CEM > 100 µM | DMS-114 > 100 µM | DMS-273 > 100 µM | HCC 2998 > 100 µM | HOP-92 > 100 µM | Malme-3M > 100 µM | NCI-H460 > 100 µM | NCI-H522 > 100 µM | OVCAR-5 > 100 µM | RPMI-8226 > 100 µM | RXF 393 22.1 µM | SF-268 64.3 µM | SN12C 92.7 µM | TK-10 > 100 µM | UACC-257 > 100 µM

C[C@@]1(CBr)C[C@@](C)(/C=C/Cl)[C@@H](Cl)C[C@H]1Cl
inactive: CCRF-CEM 2.92 µM | DMS-114 12.7 µM | DMS-273 10.8 µM | HCC 2998 16.1 µM | HL-60 3.06 µM | HOP-92 13.6 µM | Malme-3M 16.4 µM | NCI-H522 3.31 µM | OVCAR-5 13.5 µM | RXF 393 13.8 µM | SF-268 15.9 µM | SN12C 11.7 µM | TK-10 14.7 µM | UACC-257 11.4 µM

CN(C(=O)C12C3C4C1C1C2C3C41C#N)C(C)(C)C (stereo not drawn)
inactive: CCRF-CEM > 100 µM | DMS-114 > 100 µM | DMS-273 > 100 µM | HCC 2998 > 100 µM | HL-60 > 100 µM | Malme-3M > 100 µM | NCI-H460 > 100 µM | NCI-H522 > 100 µM | OVCAR-5 > 100 µM | RPMI-8226 > 100 µM | SF-268 > 100 µM | SN12C > 100 µM | TK-10 > 100 µM | UACC-257 > 100 µM

CC(C)(C)c1cc(CCCCCCCC2(CCCCCCCc3cc(C(C)(C)C)cc(C(C)(C)C)c3)OC(COCCOCCCCCC#N)C(COCCOCCCCCC#N)O2)cc(C(C)(C)C)c1 (stereo not drawn)
inactive: CCRF-CEM > 100 µM | DMS-114 > 100 µM | DMS-273 > 100 µM | HCC 2998 > 100 µM | HL-60 > 100 µM | HOP-92 > 100 µM | Malme-3M > 100 µM | NCI-H460 > 100 µM | NCI-H522 > 100 µM | OVCAR-5 > 100 µM | RXF 393 3.78 µM | SF-268 > 100 µM | SN12C > 100 µM | TK-10 > 100 µM | UACC-257 > 100 µM

CN(C)CC1CCCC(CN(C)C)C1OC(=O)c1ccccc1 (stereo not drawn)
inactive: CCRF-CEM > 100 µM | DMS-273 > 100 µM | HCC 2998 > 100 µM | HL-60 > 100 µM | HOP-92 > 100 µM | Malme-3M > 100 µM | NCI-H460 > 100 µM | NCI-H522 > 100 µM | OVCAR-5 > 100 µM | RPMI-8226 > 100 µM | RXF 393 > 100 µM | SF-268 > 100 µM | SN12C > 100 µM | TK-10 > 100 µM | UACC-257 > 100 µM

Cc1nnc(N/N=C2\C(=O)Nc3ccccc32)n1N
inactive: CCRF-CEM > 100 µM | DMS-114 > 100 µM | DMS-273 > 100 µM | HCC 2998 > 100 µM | HL-60 25.9 µM | Malme-3M > 100 µM | NCI-H460 > 100 µM | NCI-H522 > 100 µM | OVCAR-5 > 100 µM | RPMI-8226 > 100 µM | RXF 393 > 100 µM | SF-268 > 100 µM | SN12C > 100 µM | TK-10 > 100 µM | UACC-257 > 100 µM

CC12CC3CC(C)(C1)CC(N=[N+]=[N-])(C3)C2
inactive: CCRF-CEM > 100 µM | DMS-114 > 100 µM | DMS-273 > 100 µM | HCC 2998 > 100 µM | HOP-92 > 100 µM | Malme-3M > 100 µM | NCI-H460 > 100 µM | NCI-H522 > 100 µM | OVCAR-5 > 100 µM | RPMI-8226 > 100 µM | SF-268 > 100 µM | SN12C > 100 µM | TK-10 > 100 µM | UACC-257 > 100 µM

O=C1C=C/C(=N\c2ccc3c(c2)C(Br)c2ccccc2-3)O1 (stereo not drawn)
inactive: CCRF-CEM 26.8 µM | DMS-114 92.7 µM | DMS-273 > 10 µM | HCC 2998 > 100 µM | HL-60 10.2 µM | Malme-3M > 100 µM | NCI-H460 > 100 µM | NCI-H522 25.9 µM | RPMI-8226 68.2 µM | RXF 393 > 100 µM | SF-268 > 100 µM | SN12C 21.5 µM | TK-10 > 100 µM | UACC-257 > 100 µM
